Laboratory results from ChEMBL document CHEMBL1201862, “PubChem BioAssay data set” (2004).
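Where inhibition never reached the appropriate level, the endpoint shown equals the highest concentration tested. Otherwise, values were interpolated linearly from a five-concentration, 48-hour dose response in 96-well plates. GI50 marks 50% less growth.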 Active and inactive are the calls of the source. No stated cut-off is given here; in the data, active = GI50 up to about 1.1 µM and inactive = higher.

What was measured:
Assay in all cases: inhibition of tumour cell growth, NCI panel, 48 h
MOLT-4 = test system: MOLT-4
HOP-92 = test system: HOP-92
IGROV-1 = test system: IGROV-1
NCI/ADR-RES = test system: NCI/ADR-RES
HT-29 = test system: HT-29
Hs-578T = test system: Hs-578T
SW-620 = test system: SW-620
HL-60 = test system: HL-60
A498 = test system: A498
CCRF-CEM = test system: CCRF-CEM
SK-OV-3 = test system: SK-OV-3
NCI-H460 = test system: NCI-H460
BT-549 = test system: BT-549
UACC-62 = test system: UACC-62
DU-145 = test system: DU-145
MDA-MB-231 = test system: MDA-MB-231
SR = test system: SR
SK-MEL-2 = test system: SK-MEL-2
786-0 = test system: 786-0
SF-295 = test system: SF-295

Row | SMILES | GI50 (MOLT-4) | GI50 (HOP-92) | GI50 (IGROV-1) | GI50 (NCI/ADR-RES) | GI50 (HT-29) | GI50 (Hs-578T) | GI50 (SW-620) | GI50 (HL-60) | GI50 (A498) | GI50 (CCRF-CEM) | GI50 (SK-OV-3) | GI50 (NCI-H460) | GI50 (BT-549) | GI50 (UACC-62) | GI50 (DU-145) | GI50 (MDA-MB-231) | GI50 (SR) | GI50 (SK-MEL-2) | GI50 (786-0) | GI50 (SF-295)
1 | c1ccc(CN2COc3c(ccc4c5c(ccc34)CN(Cc3ccccc3)CO5)C2)cc1 | > 100 µM (inactive) | > 100 µM (inactive) | > 100 µM (inactive) | > 100 µM (inactive) | > 100 µM (inactive) | > 100 µM (inactive) | > 100 µM (inactive) | > 100 µM (inactive) | > 100 µM (inactive) | > 100 µM (inactive) | > 100 µM (inactive) | > 100 µM (inactive) | > 100 µM (inactive) | > 100 µM (inactive) | > 100 µM (inactive) | > 100 µM (inactive) | > 100 µM (inactive) | > 100 µM (inactive) | > 100 µM (inactive) | > 100 µM (inactive)
2 | N#CCN1CCCN(CC#N)CCN(CC#N)CCCN(CC#N)CC1 | > 100 µM (inactive) | > 100 µM (inactive) | > 100 µM (inactive) | > 100 µM (inactive) | > 10 µM (inactive) | > 100 µM (inactive) | 86.9 µM (inactive) | 43.8 µM (inactive) | > 100 µM (inactive) | 89.9 µM (inactive) | > 100 µM (inactive) | > 100 µM (inactive) | > 100 µM (inactive) | > 100 µM (inactive) | > 100 µM (inactive) | > 100 µM (inactive) | > 100 µM (inactive) | > 100 µM (inactive) | > 100 µM (inactive) | > 100 µM (inactive)
3 | COc1ccc2c(c1)c(=O)c1c(NCCNCCO)ccc3c(=O)n(CCN(C)C)c(=O)n2c31 | < 0.01 µM (active) | 0.0766 µM (active) | 0.0279 µM (active) | 1.26 µM (inactive) | 0.0352 µM (active) | 0.132 µM (active) | < 0.0236 µM (active) | > 100 µM (inactive) | 0.116 µM (active) | 0.104 µM (active) | 0.251 µM (active) | < 0.0202 µM (active) | 0.615 µM (active) | 0.0662 µM (active) | < 0.0337 µM (active) | 0.132 µM (active) | < 0.01 µM (active) | 0.243 µM (active) | < 0.0117 µM (active) | 0.0861 µM (active)
4 | O=C(/N=C1/NCC(CN2CCN(c3ccccc3)CC2)O1)Nc1ccccc1 (stereo not given) | 93.1 µM (inactive) | > 100 µM (inactive) | > 100 µM (inactive) | > 100 µM (inactive) | 63.8 µM (inactive) | > 100 µM (inactive) | > 100 µM (inactive) | > 100 µM (inactive) | > 100 µM (inactive) | > 100 µM (inactive) | > 100 µM (inactive) | > 100 µM (inactive) | > 100 µM (inactive) | > 100 µM (inactive) | > 100 µM (inactive) | > 100 µM (inactive) | > 100 µM (inactive) | > 100 µM (inactive) | > 100 µM (inactive) | > 100 µM (inactive)
5 | Oc1cccc2cc(Br)cnc12 | 3.29 µM (inactive) | 16 µM (inactive) | 5.09 µM (inactive) | 3.68 µM (inactive) | 23.1 µM (inactive) | 27.9 µM (inactive) | 5.28 µM (inactive) | 1.05 µM (active) | 27.5 µM (inactive) | 2.37 µM (inactive) | 41.1 µM (inactive) | 5.89 µM (inactive) | 28.1 µM (inactive) | 5.96 µM (inactive) | 28.2 µM (inactive) | 4.35 µM (inactive) | 3.42 µM (inactive) | 24.5 µM (inactive) | 31 µM (inactive) | 6.15 µM (inactive)
6 | Cc1ccc(C)c(NC(=O)C(Cc2c[nH]c3ccccc23)NC(=O)OCc2ccccc2)c1 (stereo not given) | 4.52 µM (inactive) | 17.2 µM (inactive) | 18.2 µM (inactive) | 11.1 µM (inactive) | 12.4 µM (inactive) | 58.7 µM (inactive) | 15.1 µM (inactive) | 3 µM (inactive) | 35.6 µM (inactive) | 1.42 µM (inactive) | 20.1 µM (inactive) | 13.7 µM (inactive) | 21.8 µM (inactive) | 15.9 µM (inactive) | 13.5 µM (inactive) | 16.1 µM (inactive) | 14.3 µM (inactive) | 16 µM (inactive) | 15.5 µM (inactive) | 25.8 µM (inactive)
7 | COc1cc2c3c(c1O)C1(C=CC(=O)C=C1)CC3N(C)CC2 (stereo not given) [GLAZIOVINE] | 4.26 µM (inactive) | 11.6 µM (inactive) | 6.22 µM (inactive) | 2.72 µM (inactive) | 8.95 µM (inactive) | 14.4 µM (inactive) | 5.89 µM (inactive) | 2.79 µM (inactive) | 17.7 µM (inactive) | 2.31 µM (inactive) | 31.3 µM (inactive) | 4.11 µM (inactive) | 5.78 µM (inactive) | 11.1 µM (inactive) | 13.2 µM (inactive) | 4.86 µM (inactive) | 3.3 µM (inactive) | 10.7 µM (inactive) | 3.17 µM (inactive) | 12 µM (inactive)
